Series [1] is described as follows: Oral administration to rats, plasma concentration and absorption ratio (Example 1, Table 1). In kind it is in vivo. To be noted: rat, SD-strain male rats, 20 mg/kg, suspended in 0.5% methylcellulose. Here is the method: The antiulcer drug 2-[[[3-methyl-4-(2,2,3,3,-tetrafluoropropoxy)-2-pyridyl]methyl]thio]benzimidazole (hereinafter sometimes referred to as Compound A) (400 mg) and lactic acid/glycollic acid copolymer (lactic acid/glycollic acid=50/50, average molecular weight calculated as polystyrene=5400) (3.6 g) were dissolved in dichloromethane (5 ml) to prepare an o/w type emulsion using a homogenizer in an aqueous solution (800 ml) of 0.1% polyvinyl alcohol (PVA). Then, the emulsion was slowly stirred with a conventional propeller stirrer. After dichloromethane vaporized and the microcapsules hardened, the microcapsules were collected by centrifugation and at the same time washed with purified water. The collected microcapsules were freeze-dried for a day to obtain powdery microcapsules.
The drug content in the total amount of the microcapsules was 10.0%, and the entrapment was 100%. The microcapsules were suspended in 0.5% methylcellulose, and orally administered to SD-strain male rats (body weight: 250 g) in a dose of 20 mg/kg. A suspension of the drug alone in 0.5% methylcellulose was also administered for comparison. In both cases, the plasma concentration of the drug and the absorption ratio were determined.

A short description of series [2]: Oral administration to rats, plasma concentration and absorption ratio (Example 2, Table 2). To be noted: rat, 20 mg/kg. In kind it is in vivo, SD-strain male rats. Here is the method:
From this emulsion, a w/o/w type emulsion was prepared using a homogenizer in 0.5% PVA aqueous solution (1000 ml). Then, the emulsion was slowly stirred with a conventional propeller stirrer for 3 hours. After dichloromethane vaporized while w/o type microcapsules hardened, the microcapsules were centrifuged and collected and at the same time washed with purified water. The collected microcapsules were freeze-dried for a day to obtain powdery microcapsules.
The microcapsules were suspended in 0.5% methylcellulose, and orally administered to SD-strain male rats (body weight: 250 g) in a dose of 20 mg/kg. For comparative purposes, a suspension of the drug alone in 0.5% methylcellulose was also administered. In both cases, the plasma concentration of the drug and the absorption ratio were determined.

Series [3] can be described thus: Solubility of Compound A at the pH in the small intestine (stated in words). In kind it is physicochemical.
The conditions of series [4]: pH no higher than 3; cited from earlier work.

Turning to `Cc1c(OCC(F)(F)C(F)F)ccnc1CSc1nc2ccccc2[nH]1` [Compound A, 2-[[[3-methyl-4-(2,2,3,3,-tetrafluoropropoxy)-2-pyridyl]methyl]thio]benzimidazole], the Fa in series [1] (in vivo) and in series [2] (in vivo) was 5.4% in each case. Also, the Cmax came out at 218 ng/mL in series [1] (plasma, read-out: Cmax (peak blood level)) and 218 ng/mL in series [2] (plasma). Further, the Tmax was 15 min in series [1] (plasma, read-out: Tmax (time required to obtain the peak blood level)) and 15 min in series [2] (plasma). For the same compound, the solubility result in series [3] was “very low solubility”.
With `COc1ccc2c(c1)c(CC(=O)O)c(C)n2C(=O)c1ccc(Cl)cc1` [indomethacin], in series [4], the solubility in water result is listed as “not readily soluble”.

The values above are taken from patent US6113941A, “Substained release microcapsule of physiologically active compound which is slightly water soluble at pH 6 to 8” (Takeda Chemical Industries, Ltd., priority 1994, dated 2000).
